For the experiment, the target named is T1, Intermediate-conductance Ca2+-activated K+ channels (IK channels), hIK (Homo sapiens, UniProt O15554).
T1 construct: expressed in transfected cells; host or cells: HEK293
The experiment is described as follows: Whole-cell patch-clamp recording of ionic current through IK channels stably expressed in HEK293 cells. To be noted: 1 μM test compound, baseline hIK current set to 100 (>100 activator, <100 blocker, 200 = doubling), whole-cell mode. The class given is cell-based. Here is the method:
In this experiment the ionic current through Intermediate-conductance Ca^2+-activated K^+ channels (IK channels) is recorded in the whole-cell mode of the patch-clamp technique.
Intermediate-conductance Ca^2+-activated K^+ channels (IK channels) have been cloned from human placenta and stably expressed in HEK293 cells.
Human IK (hIK) was excised from pT3T7 (GenBank Acc. No. N56819) using EcoR I and Not I and subcloned into the mammalian expression vector pNS1Z (NeuroSearch), a custom designed derivative of pcDNA3Zeo (InVitrogen) to give the plasmid construct pNS1Z_hIK. HEK293 tissue culture cells were grown in DMEM (Dulbecco's Modified Eagle Medium) supplemented with 10% FCS (foetal calf serum) at 37° C. in 5% CO2. One day prior to transfection, 10^6 cells were plated in a cell culture T25 flask. The following day, cells were transfected using lipofection (20 μL Lipofectamin™, Life Technologies, with 2.5 μg of the plasmid pNS1Z_hIK in a total volume of 540 μL).
The lipofection mixture was overlaid on the cells and incubated at 37° C. for 5 hours. The cells were then rinsed with regular media and grown for 72 hours in DMEM, 10% FCS at 37° C. in 5% CO2. […]
Experiments are carried out on a patch-clamp workstation equipped with an autosampler. […] Data are stored directly on the harddisk and analysed by the IGOR software (wavemetrics, Lake Oswego, USA)
The whole-cell configuration of the patch clamp technique is applied. […] Cell capacitance is electronically compensated and the resistance between the pipette and the cell interior (the series resistance, Rs) is measured and compensated for. […]
The extracellular (bath) solution contains (conc. in mM): 144 KCl, 0.1 CaCl2, 3 MgCl2, 10 HEPES (pH=7.4). The intracellular (pipette) solution has the following composition (conc. in mM): 144 KCl, 10 EGTA, 10 HEPES (pH=7.2) as well as CaCl2 and MgCl2 in concentrations calculated to result in a free concentration of Ca^2+ between 100 nM and 300 nM. The free concentration of Mg^2+ is calculated to be 1 mM. […]
Background: In patch-clamp work, channel activity is measured electrically.
Take `Nc1nc2c(Cl)c(Cl)ccc2s1` [Compound 1, 2-amino-4,5-dichlorobenzothiazole]: the “Ionic Currents: Value determined using 1 μM of the test compound” value (“Ionic Currents: Value determined” below) amounted to 170. As to `Nc1nc2c3c(ccc2s1)CCCC3` [Compound 3, 2-amino-(5,6,7,8-tetrahydronaphto)-[1,2-d]-thiazole], the “Ionic Currents: Value determined” value worked out at 400.

Take `Cc1ccc2sc(N)nc2c1C` [Compound 2, 2-amino-4,5-dimethylbenzothiazole]: the “Ionic Currents: Value determined” value is given as 130.
